# In publication PMC9774241, “Associating Biological Activity and Predicted Structure of Antimicrobial Peptides from Amphibians and Insects” (Antibiotics, 2022):
# Read-outs that look alike come from different tables or passages of the source. Residues, ends and D or L forms follow the SMILES beside them. No end group written: not given here.
# Experiments:
# Format in all cases: cell-based
# [1] = tested on: Escherichia coli ATCC 25922
# Experimental: (§1) Bacteria were grown overnight at 37 °C in Mueller-Hinton Broth (MHB; Sigma-Aldrich, St. Louis. MO, USA) in a shaking incubator and aliquoted into cryovials with a 50% glycerol solution in a 1:1 ratio. No additives were added to the MHB during the growth of bacterial isolates. Glycerol stocks were stored at −80 °C.
# (§2) The antimicrobial activity of the putative AMPs was determined by a broth microdilution assay as described by the Clinical and Laboratory Standards Institute, with the published adaptations for testing of cationic peptides. Escherichia coli 25922 and Staphylococcus aureus 29213 isolates were purchased from the American Type Culture Collection (ATCC; Manassas, VA, USA). A human clinical isolate of Salmonella enterica serovar Enteritidis was provided by the BC Centre for Disease Control. Bacteria from stocks stored at −80 °C were streaked onto nonselective Columbia blood agar with 5% sheep blood (Oxoid) and incubated overnight at 37 °C. Next, 2–4 colonies were streaked onto a new agar plate to ensure uniform health of colonies used in the broth microdilution assay. Isolated colonies were suspended in MHB and the optical density was measured with a spectrophotometer to create an initial inoculum concentration of approximately 1 × 10^8 cfu/mL. The inoculum was diluted 1:250 to a final concentration of 2–8 × 10^5 cfu/mL, which was confirmed by performing a Total Viability Count (TVC). The TVC consisted of plating a 1:1000 dilution of the final inoculum on nonselective media and was also used to confirm the health and purity of the inoculum in each trial.
# (§3) Lyophilized 80 µg peptide aliquots synthesized by GenScript (Piscataway, NJ, USA) were resuspended to 1.28 mg/mL with UltraPure water (Thermo Fisher Scientific, Waltham, MA, USA) and serially diluted in polypropylene 96-well microtiter plates (Greiner Bio-One #650261, Kremsmünster, Austria) from 128 down to 0.5 µg/mL. Two columns per plate were reserved for growth and sterility controls. Inoculum was added to the wells containing the peptide and the growth control. Plates were incubated for 20–24 h at 37 °C. The minimum inhibitory concentration (MIC) was determined as the lowest peptide concentration where there was no visible bacterial growth.
# [2] = tested on: Salmonella enterica serovar Enteritidis (human clinical isolate)
# Experimental: as §1, §2, §3
# [3] = tested on: Staphylococcus aureus ATCC 29213
# Experimental: as §1, §2, §3
# [4] = broth microdilution in MHB, peptide 128 down to 0.5 µg/mL, 20–24 h at 37 °C, no visible growth, range of three independent experiments
Molecule,"MIC, E. coli ATCC 25922 [1, 4] [mg/L]","MIC, Salmonella Enteritidis [2, 4] [mg/L]","MIC, S. aureus ATCC 29213 [3, 4] [mg/L]","MIC, E. coli ATCC 25922 ([1]; ATCC 25922) [mg/L]","MIC, Salmonella Enteritidis ([2]; serovar Enteritidis (human clinical isolate)) [mg/L]","MIC, S. aureus ATCC 29213 ([3]; ATCC 29213) [mg/L]"
CC[C@H](C)[C@H](NC(=O)[C@H](CCCCN)NC(=O)[C@H](CCCCN)NC(=O)CNC(=O)[C@@H](NC(=O)CNC(=O)[C@H](CC(C)C)NC(=O)[C@@H](NC(=O)CNC(=O)[C@H](CO)NC(=O)[C@H](CC(C)C)NC(=O)[C@H](CC(C)C)NC(=O)CN)C(C)C)C(C)C)C(=O)N[C@H](C(=O)N[C@@H](CS)C(=O)NCC(=O)N[C@@H](CC(C)C)C(=O)N[C@@H](CO)C(=O)NCC(=O)N[C@@H](CC(C)C)C(=O)N[C@@H](CS)C(=O)O)C(C)C [OdMa6] (H-GLLSGVLGVGKKIVCGLSGLC-OH; N-terminus and C-terminus assumed),8 to 16,128,16 to 32,,,
GILSGLLGAGKKIVC [OdMa4],8 to 16,32,> 128,,,
ATAWKVPPGLQPIRPIRIRPLCGNDKS [PeNi16],> 128,> 128,> 128,,,
AGLQFPVGRIHRHLKTR [PeNi6],> 128,> 128,> 128,,,
CC(C)C[C@H](NC(=O)CN)C(=O)N[C@@H](CC(C)C)C(=O)NCC(=O)N[C@@H](CCCCN)C(=O)N[C@H](C(=O)N[C@@H](CC(C)C)C(=O)NCC(=O)N[C@H](C(=O)NCC(=O)N[C@@H](CCCCN)C(=O)N[C@@H](CCCCN)C(=O)N[C@H](C(=O)N[C@@H](CC(C)C)C(=O)N[C@@H](CS)C(=O)NCC(=O)N[C@H](C(=O)N[C@@H](CO)C(=O)NCC(=O)N[C@@H](CCCNC(=N)N)C(=O)N[C@@H](CS)C(=O)O)C(C)C)C(C)C)C(C)C)C(C)C [RaOm4] (H-GLLGKVLGVGKKVLCGVSGRC-OH; N-terminus and C-terminus assumed),4 to 8,32,64 to 128,,,
CC[C@H](C)[C@H](NC(=O)CN)C(=O)N[C@@H](CC(C)C)C(=O)N[C@@H](CO)C(=O)NCC(=O)N[C@@H](CC(C)C)C(=O)N[C@@H](CC(C)C)C(=O)NCC(=O)N[C@@H](C)C(=O)NCC(=O)N[C@@H](CCCCN)C(=O)N[C@@H](CCCCN)C(=O)N[C@@H](CC(C)C)C(=O)N[C@@H](C)C(=O)N[C@@H](CS)C(=O)NCC(=O)N[C@@H](CC(C)C)C(=O)N[C@H](C(=O)NCC(=O)N[C@@H](CC(C)C)C(=O)N[C@@H](CS)C(=O)O)[C@@H](C)CC [OdTo1] (H-GILSGLLGAGKKLACGLIGLC-OH; N-terminus and C-terminus assumed),8,32 to 64,8 to 16,,,
"GIFSLIKGAAKVVAKGLG [PeNi3, rAMPage-discovered AMP, Pelophylax nigromaculatus]",16 to 32,64 to 128,64 to 128,,,
GAFVLWGPTPRPRRR [DiLo1],128,> 128,> 128,,,
GLISGILGAGKKVLC [OdMa9],64 to 128,128,> 128,,,
CC[C@H](C)[C@H](NC(=O)[C@H](CCCCN)NC(=O)[C@H](CC(=O)O)NC(=O)[C@H](CC(C)C)NC(=O)[C@@H](NC(=O)CNC(=O)[C@@H](NC(=O)[C@H](CO)NC(=O)[C@H](Cc1ccccc1)NC(=O)[C@H](CC(N)=O)NC(=O)[C@H](CCCCN)NC(=O)[C@@H](NC(=O)CNC(=O)[C@H](CCC(=O)O)NC(=O)[C@H](CCCCN)NC(=O)[C@@H](NC(=O)[C@@H](NC(=O)[C@@H](NC(=O)[C@H](Cc1c[nH]c2ccccc12)NC(=O)[C@H](CC(C)C)NC(=O)CN)[C@@H](C)O)[C@@H](C)O)[C@@H](C)CC)C(C)C)C(C)C)C(C)C)C(=O)N[C@@H](CCCNC(=N)N)C(=O)N[C@@H](CS)C(=O)N[C@@H](CCCCN)C(=O)N[C@H](C(=O)N[C@H](C(=O)NCC(=O)NCC(=O)N[C@@H](CS)C(=O)O)[C@@H](C)O)[C@@H](C)CC [PeNi14] (H-GLWTTIKEGVKNFSVGVLDKIRCKITGGC-OH; N-terminus and C-terminus assumed),4 to 8,32,16 to 32,,,
CC[C@H](C)[C@H](NC(=O)[C@H](CO)NC(=O)[C@@H]1CCCN1C(=O)[C@H](CC(C)C)NC(=O)[C@@H](NC(=O)[C@H](CCCCN)NC(=O)[C@H](C)NC(=O)[C@H](C)NC(=O)[C@H](CC(C)C)NC(=O)CNC(=O)[C@H](C)NC(=O)[C@@H](NC(=O)[C@@H](NC(=O)[C@@H]1CCCN1C(=O)[C@H](CC(C)C)NC(=O)[C@H](Cc1ccccc1)NC(=O)[C@H](CCCNC(=N)N)NC(=O)[C@H](CCC(N)=O)NC(=O)[C@H](CCC(=O)O)NC(=O)[C@@H](N)CCC(=O)O)C(C)C)C(C)C)C(C)C)C(=O)N[C@H](C(=O)N[C@@H](CS)C(=O)N[C@@H](C)C(=O)N[C@H](C(=O)N[C@H](C(=O)N[C@@H](CCCCN)C(=O)N[C@@H](CCCCN)C(=O)N[C@@H](CS)C(=O)O)[C@@H](C)O)C(C)C)[C@@H](C)CC [RaSy2] (H-EEQRFLPVVAGLAAKVLPSIICAVTKKC-OH; N-terminus and C-terminus assumed),64,> 128,64 to 128,,,
CC[C@H](C)[C@H](NC(=O)CNC(=O)[C@H](CO)NC(=O)[C@H](CC(C)C)NC(=O)[C@H](CC(C)C)NC(=O)CN)C(=O)N[C@@H](CC(C)C)C(=O)NCC(=O)N[C@@H](C)C(=O)NCC(=O)N[C@@H](CCCCN)C(=O)N[C@@H](CCCCN)C(=O)N[C@H](C(=O)N[C@H](C(=O)N[C@@H](CS)C(=O)NCC(=O)N[C@@H](Cc1ccccc1)C(=O)N[C@@H](CO)C(=O)NCC(=O)N[C@@H](CC(C)C)C(=O)N[C@@H](CS)C(=O)O)C(C)C)[C@@H](C)CC [OdMa1] (H-GLLSGILGAGKKIVCGFSGLC-OH; N-terminus and C-terminus assumed),8 to 16,128,64,,,
"GFMDTAKNVAKNVAVTLLDNLKCKITKAC [OdMa13, rAMPage-discovered AMP, Odorrana margaretae]",64 to 128,> 128,> 128,,,
RPRWSHRSRR [PeNi18],> 128,> 128,> 128,,,
GILRLVTRRFRFSPTNLNRYTVARLVSGVP [BoAr6],32,64,64 to 128,,,
ITEPVGTKAPTFTSELRGGWLKKR [PaVa3],> 128,> 128,> 128,,,
AVLSFVHKLFLNFLHVDTSKGKCRATLQ [TeRu3],> 128,> 128,> 128,,,
VAAFAIIGCLCCRRPRR [PoRo1],> 128,> 128,> 128,,,
GIYTGRLLPVYIPQPRPPHPRLRR [ApCe1],4 to 8,16 to 32,> 128,,,
CC[C@H](C)[C@H](NC(=O)CN)C(=O)N[C@@H](CC(C)C)C(=O)N[C@@H](CO)C(=O)NCC(=O)N[C@@H](CC(C)C)C(=O)N[C@@H](CC(C)C)C(=O)NCC(=O)N[C@@H](C)C(=O)NCC(=O)N[C@@H](CCCCN)C(=O)N[C@@H](CCCCN)C(=O)N[C@H](C(=O)N[C@H](C(=O)N[C@@H](CS)C(=O)NCC(=O)N[C@@H](CC(C)C)C(=O)N[C@@H](CO)C(=O)NCC(=O)N[C@@H](CC(C)C)C(=O)N[C@@H](CS)C(=O)O)C(C)C)[C@@H](C)CC [OdMa5] (H-GILSGLLGAGKKIVCGLSGLC-OH; N-terminus and C-terminus assumed),8 to 16,64 to 128,8 to 16,,,
FPFPFGRR [RaSi2],> 128,> 128,> 128,,,
DNKWQNVHFHRSAVTGPTSFSFSHK [AnFl1],,,,> 128,> 128,> 128
